One assay deals with T1, CDK9/CycT1 (Homo sapiens, UniProt P50750).
T1 construct: Recombinant full-length His-tagged human CDK9 and CycT1; His; purchased Invitrogen PV4131; host or cells: insect cells
The assay can be described thus: CDK9/CycT1 high ATP kinase assay (TR-FRET, Method 1b). Format: biochemical. The conditions noted are these: 2 mM ATP; for IC50: Method 1b; for Selectivity high ATP CDK9 over high ATP CDK2: IC50 (high ATP CDK2)/IC50 (high ATP CDK9): Methods 1b and 2b. The procedure: 1b. CDK9/CycT1 High ATP Kinase Assay
CDK9/CycT1-inhibitory activity of compounds of the present invention at a high ATP concentration after preincubation of enzyme and test compounds was quantified employing the CDK9/CycT1 TR-FRET assay as described in the following paragraphs.
Recombinant full-length His-tagged human CDK9 and CycT1, expressed in insect cells and purified by Ni-NTA affinity chromatography, were purchase from Invitrogen (Cat. No PV4131). As substrate for the kinase reaction biotinylated peptide biotin-Ttds-YISPLKSPYKISEG (C-terminus in amid form) was used which can be purchased e.g. from the company JERINI peptide technologies (Berlin, Germany).
For the assay 50 nl of a 100 fold concentrated solution of the test compound in DMSO was pipetted into a black low volume 384 well microtiter plate (Greiner Bio-One, Frickenhausen, Germany), 2 μl of a solution of CDK9/CycT1 in aqueous assay buffer [50 mM Tris/HCl pH 8.0, 10 mM MgCl2, 1.0 mM dithiothreitol, 0.1 mM sodium ortho-vanadate, 0.01% (v/v) Nonidet-P40 (Sigma)] were added and the mixture was incubated for 15 min at 22° C. to allow pre-binding of the test compounds to the enzyme before the start of the kinase reaction. […] The concentration of CDK9/CycT1 was adjusted depending of the activity of the enzyme lot and was chosen appropriate to have the assay in the linear range, typical concentrations were in the range of 0.5 μg/mL. The reaction was stopped by the addition of 5 μl of a solution of TR-FRET detection reagents (0.2 μM streptavidine-XL665 [Cisbio Bioassays, Codolet, France] and 1 nM anti-RB(pSer807/pSer811)-antibody from BD Pharmingen [#558389] and 1.2 nM LANCE EU-W1024 labeled anti-mouse IgG antibody [Perkin-Elmer, product no. AD0077]) in an aqueous EDTA-solution (100 mM EDTA, 0.2% (w/v) bovine serum albumin in 100 mM HEPES pH 7.5).
The resulting mixture was incubated 1 h at 22° C. to allow the formation of complex between the phosphorylated biotinylated peptide and the detection reagents. Subsequently the amount of phosphorylated substrate was evaluated by measurement of the resonance energy transfer from the Eu-chelate to the streptavidine-XL. Therefore, the fluorescence emissions at 620 nm and 665 nm after excitation at 350 nm was measured in a HTRF reader, e.g. a Rubystar (BMG Labtechnologies, Offenburg, Germany) or a Viewlux (Perkin-Elmer). The ratio of the emissions at 665 nm and at […] was taken as the measure for the amount of phosphorylated substrate. The data were normalised (enzyme reaction without inhibitor=0% inhibition, all other assay components but no enzym=100% inhibition).
For orientation: TR-FRET usually uses a lanthanide donor and a delayed reading to cut background.

The target in the next assay is T2, CDK2/CycE (Homo sapiens, UniProt P24941).
T2 construct: GST; purchased ProQinase GmbH (Freiburg, Germany); host or cells: insect cells (Sf9)
The assay can be described thus: CDK2/CycE high ATP kinase assay (TR-FRET, Method 2b). Format: biochemical. The conditions noted are these: 2 mM ATP. The procedure:
2b. CDK2/CycE High ATP Kinase Assay:
CDK2/CycE-inhibitory activity of compounds of the present invention at 2 mM adenosine-tri-phosphate (ATP) was quantified employing the CDK2/CycE TR-FRET (TR-FRET=Time Resolved Fluorescence Resonance Energy Transfer) assay as described in the following paragraphs.
Recombinant fusion proteins of GST and human CDK2 and of GST and human CycE, expressed in insect cells (Sf9) and purified by Glutathion-Sepharose affinity chromatography, were purchase from ProQinase GmbH (Freiburg, Germany). As substrate for the kinase reaction biotinylated peptide biotin-Ttds-YISPLKSPYKISEG (C-terminus in amid form) was used which can be purchased e.g. from the company JERINI peptide technologies (Berlin, Germany).
For the assay 50 nl of a 100 fold concentrated solution of the test compound in DMSO was pipetted into a black low volume 384 well microtiter plate (Greiner Bio-One, Frickenhausen, Germany), 2 μl of a solution of CDK2/CycE in aqueous assay buffer [50 mM Tris/HCl pH 8.0, 10 mM MgCl2, 1.0 mM dithiothreitol, 0.1 mM sodium ortho-vanadate, 0.01% (v/v) Nonidet-P40 (Sigma)] were added and the mixture was incubated for 15 min at 22° C. to allow pre-binding of the test compounds to the enzyme before the start of the kinase reaction. Then the kinase reaction was started by the addition of 3 μl of a solution ATP (3.33 mM=>final conc. in the 5 μl assay volume is 2 mM) and substrate (1.25 μM=>final conc. in the 5 μl assay volume is 0.75 μM) in assay buffer and the resulting mixture was incubated for a reaction time of 25 min at 22° C. The concentration of CDK2/CycE was adjusted depending of the activity of the enzyme lot and was chosen appropriate to have the assay in the linear range, typical concentrations were in the range of 15 ng/ml. The reaction was stopped by the addition of 5 μl of a solution of TR-FRET detection reagents (0.2 μM streptavidine-XL665 [Cisbio Bioassays, Codolet, France] and 1 nM anti-RB(pSer807/pSer811)-antibody from BD Pharmingen [#558389] and 1.2 nM LANCE EU-W1024 labeled anti-mouse IgG antibody [Perkin-Elmer, product no. AD0077, as an alternative a Terbium-cryptate-labeled anti-mouse IgG antibody from Cisbio Bioassays can be used]) in an aqueous EDTA-solution (100 mM EDTA, 0.2% (w/v) bovine serum albumin in 100 mM HEPES pH 7.5).
The resulting mixture was incubated 1 h at 22° C. to allow the formation of complex between the phosphorylated biotinylated peptide and the detection reagents. Subsequently the amount of phosphorylated substrate was evaluated by measurement of the resonance energy transfer from the Eu-chelate to the streptavidine-XL. Therefore, the fluorescence emissions at 620 nm and 665 nm after excitation at 350 nm were measured in a TR-FRET reader, e.g. a Rubystar (BMG Labtechnologies, Offenburg, Germany) or a Viewlux (Perkin-Elmer). The ratio of the emissions at 665 nm and at […] was taken as the measure for the amount of phosphorylated substrate. The data were normalised (enzyme reaction without inhibitor=0% inhibition, all other assay components but no enzym=100% inhibition).

The values that follow come from US10214542B2, “Modified macrocyclic compounds” (BAYER PHARMA AKTIENGESELLSCHAFT, priority 2015, dated 2019).

The term IC50 denotes the point on the concentration scale where inhibition reaches its midpoint. Read a low IC50 as greater potency.

T1 sequence (P50750 whole entry): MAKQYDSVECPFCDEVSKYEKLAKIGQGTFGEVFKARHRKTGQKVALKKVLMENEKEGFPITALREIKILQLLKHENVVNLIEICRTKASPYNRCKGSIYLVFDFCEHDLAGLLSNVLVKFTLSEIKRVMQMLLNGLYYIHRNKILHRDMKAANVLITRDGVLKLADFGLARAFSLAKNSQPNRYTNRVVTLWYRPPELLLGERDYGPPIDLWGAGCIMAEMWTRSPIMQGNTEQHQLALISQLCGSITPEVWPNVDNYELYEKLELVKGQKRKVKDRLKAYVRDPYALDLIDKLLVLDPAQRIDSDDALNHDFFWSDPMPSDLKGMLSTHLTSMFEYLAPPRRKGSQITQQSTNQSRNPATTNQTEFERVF
T1 sequence (O60563 whole entry partner): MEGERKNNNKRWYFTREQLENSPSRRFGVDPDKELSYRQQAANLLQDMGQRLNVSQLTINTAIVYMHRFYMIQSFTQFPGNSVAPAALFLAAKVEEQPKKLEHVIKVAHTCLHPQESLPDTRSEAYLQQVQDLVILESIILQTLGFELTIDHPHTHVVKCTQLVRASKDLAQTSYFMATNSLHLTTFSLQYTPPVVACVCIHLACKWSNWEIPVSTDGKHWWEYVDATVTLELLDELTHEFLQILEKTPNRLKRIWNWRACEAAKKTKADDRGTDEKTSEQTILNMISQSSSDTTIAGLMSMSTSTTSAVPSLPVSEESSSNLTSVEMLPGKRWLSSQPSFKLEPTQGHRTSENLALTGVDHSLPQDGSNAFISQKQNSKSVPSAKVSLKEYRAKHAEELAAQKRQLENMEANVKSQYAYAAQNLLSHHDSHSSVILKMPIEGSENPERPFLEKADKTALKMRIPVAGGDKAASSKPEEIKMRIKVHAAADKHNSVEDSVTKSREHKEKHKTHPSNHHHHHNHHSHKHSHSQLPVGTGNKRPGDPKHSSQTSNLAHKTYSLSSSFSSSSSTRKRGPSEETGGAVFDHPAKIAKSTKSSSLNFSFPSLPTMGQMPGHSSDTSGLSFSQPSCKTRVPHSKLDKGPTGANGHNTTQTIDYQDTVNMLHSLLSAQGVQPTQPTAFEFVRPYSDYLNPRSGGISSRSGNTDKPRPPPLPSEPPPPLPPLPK

Take `CS(=N)(=O)Cc1cc2nc(c1)Nc1cc(c(F)cn1)-c1ccc(F)cc1OCCCCN2` (racemic) [Example 3, (rac)-16,20-Difluoro-9-[(S-methylsulfonimidoyl)methyl]-3,4,5,6-tetrahydro-2H,12H-11,7-(azeno)-13,17-(metheno)-1,6,12,14-benzoxatriazacyclononadecine]: the figures for the IC50 at CDK9/CycT1 and against CDK2/CycE were 3.9 nM and 650 nM, respectively. Also, the “Selectivity high ATP CDK9 over high ATP CDK2: IC50 (high ATP CDK2)/IC50 (high ATP CDK9)” value (“Selectivity high ATP CDK9” for short) on CDK9/CycT1 worked out at 167.

As to `CS(=N)(=O)Cc1cc2nc(c1)Nc1cc(c(F)cn1)-c1ccc(F)cc1OCCCN2` (racemic) [Example 8, (rac)-15,19-difluoro-8-[(S-methylsulfonimidoyl)methyl]-2,3,4,5-tetrahydro-11H-10,6-(azeno)-16,12-(metheno)-1,5,11,13-benzoxatriazacyclooctadecine], the IC50 came to 0.7 nM against CDK9/CycT1 and 29 nM at CDK2/CycE. Moreover, the “Selectivity high ATP CDK9” value at CDK9/CycT1 is recorded as 41.4.

As to `CC(C)(C)OC(=O)N=S(C)(=O)Cc1cc2nc(c1)Nc1cc(c(F)cn1)-c1ccc(F)cc1OCCCN2` (racemic) [Example 7, (rac)-tert-butyl[{[15,19-difluoro-2,3,4,5-tetrahydro-11H-10,6-(azeno)-16,12-(metheno)-1,5,11,13-benzoxatriazacyclooctadecin-8-yl]methyl}(methyl)oxido-λ^6-sulfanylidene]carbamate], at CDK9/CycT1, the IC50 is 1.9 nM and the “Selectivity high ATP CDK9” value came out at 32.1. This compound also showed an IC50 against CDK2/CycE of 61 nM.

For `CS(=N)(=O)Cc1cc2cc(c1)OCCCNc1cc(F)ccc1-c1nc(ncc1F)N2` (racemic) [Example 14, rac-15,19-difluoro-8-[(S-methylsulfonimidoyl)methyl]-1,2,3,4-tetrahydro-16,12-(azeno)-6,10-(metheno)-5,1,11,13-benzoxatriazacyclooctadecine], on CDK9/CycT1, the half-inhibitory concentration (IC50) turned out to be 1 nM and the “Selectivity high ATP CDK9” value is reported as 94. The compound also returned an IC50 against CDK2/CycE of 94 nM.

As for `CS(=N)(=O)Cc1cc2nc(c1)Nc1cc(c(F)cn1)-c1ccc(F)cc1OCCCCCN2` (racemic) [Example 10, (rac)-17,21-difluoro-10-[(S-methylsulfonimidoyl)methyl]-2,3,4,5,6,7-hexahydro-13H-12,8-(azeno)-14,18-(metheno)-1,7,13,15-benzoxatriazacycloicosine], the IC50 was found to be 1 nM at CDK9/CycT1 and 102 nM against CDK2/CycE. Further, the “Selectivity high ATP CDK9” value at CDK9/CycT1 was found to be 102.

Take `CSCc1cc2nc(c1)OCCCCc1cc(F)ccc1-c1cc(ncc1F)N2` [Example 4, 2,18-Difluoro-9-[(methylsulfanyl)methyl]-13,14,15,16-tetrahydro-6H-7,11-(azeno)-5,1-(metheno)-12,4,6-benzoxadiazacyclooctadecine]: on CDK9/CycT1, 323 nM corresponded to half-maximal inhibition (IC50) and the “Selectivity high ATP CDK9” value was >61.9. Moreover, on CDK2/CycE, the IC50 is > 20000 nM.

For the compound `CSCc1cc2nc(c1)OCCCCCc1cc(F)ccc1-c1cc(ncc1F)N2` [Example 18, 2,19-difluoro-9-[(methylsulfanyl)methyl]-14,15,16,17-tetrahydro-6H,13H-7,11-(azeno)-5,1-(metheno)-12,4,6-benzoxadiazacyclononadecine], the IC50 against CDK9/CycT1 is 246 nM; at CDK2/CycE, > 20000 nM. For the same compound, the “Selectivity high ATP CDK9” value on CDK9/CycT1 is recorded as >81.3.

Consider `CS(=N)(=O)Cc1cc2nc(c1)OCCCCCc1cc(F)ccc1-c1cc(ncc1F)N2` (racemic) [Example 20, (rac)-2,19-difluoro-9-[(S-methylsulfonimidoyl)methyl]-14,15,16,17-tetrahydro-6H,13H-7,11-(azeno)-5,1-(metheno)-12,4,6-benzoxadiazacyclononadecine], for which the half-inhibitory concentration (IC50) stood at 5.2 nM at CDK9/CycT1 and 921 nM against CDK2/CycE. For the same compound, the “Selectivity high ATP CDK9” value at CDK9/CycT1 is 177.

With `CC(C)(C)OC(=O)N=S(C)(=O)Cc1cc2cc(c1)Nc1ncc(F)c(n1)-c1ccc(F)cc1OCCCCN2` (racemic) [Example 24, (rac)-tert-butyl[{[16,20-difluoro-3,4,5,6-tetrahydro-2H,12H-13,17-(azeno)-11,7-(metheno)-1,6,12,14-benzoxatriazacyclononadecin-9-yl]methyl}(methyl)oxido-λ^6-sulfanylidene]carbamate], the IC50 at CDK9/CycT1 is 44 nM; on CDK2/CycE, > 20000 nM. The “Selectivity high ATP CDK9” value on CDK9/CycT1 is listed as >454.

`CS(=N)(=O)Cc1cc2cc(c1)OCCCCSc1cc(F)ccc1-c1nc(ncc1F)N2` (racemic) [Example 22, (rac)-16,20-difluoro-9-[(S-methylsulfonimidoyl)methyl]-2,3,4,5-tetrahydro-12H-17,13-(azeno)-11,7-(metheno)-6,1,12,14-benzoxathiadiazacyclononadecine]: at CDK9/CycT1, half-maximal inhibition (IC50) required 4.5 nM and the “Selectivity high ATP CDK9” value was 244. On CDK2/CycE, this compound had an IC50 of 1100 nM.

For `CN1CCCCNc2cc(F)ccc2-c2nc(ncc2F)Nc2cc(CS(C)(=N)=O)cc1c2.O=CO` (racemic) [Example 17, (rac)-16,20-difluoro-6-methyl-9-[(S-methylsulfonimidoyl)methyl]-1,2,3,4,5,6-hexahydro-12H-17,13-(azeno)-11,7-(metheno)-1,6,12,14-benzotetraazacyclononadecine; salt with formic acid], on CDK9/CycT1, the IC50 was 2.2 nM and the “Selectivity high ATP CDK9” value is recorded as 283. The IC50 on CDK2/CycE came to 622 nM.

`CSCc1cc2nc(c1F)N(C)CCCCOc1cc(F)ccc1-c1cc(ncc1F)N2` [Example 12, 8,16,20-trifluoro-6-methyl-9-[(methylsulfanyl)methyl]-3,4,5,6-tetrahydro-2H,12H-11,7-(azeno)-13,17-(metheno)-1,6,12,14-benzoxatriazacyclononadecine] came in with an IC50 against CDK9/CycT1 of 10 nM.
